EC50 data for 1 compound are collected here from ChEMBL document CHEMBL4038317, “Discovery of a Benzamide Derivative That Protects Pancreatic β-Cells against Endoplasmic Reticulum Stress” (J Med Chem, 2017).

The test concerns INS1. Put plainly: Cytoprotective activity in rat INS-1 cells assessed as protection against tunicamycin-induced ER stress-mediated reduction in cell viability after 3 days by CellTiter-Glo assay. Conditions: INS1, 72 h. For orientation: ATP-based viability assays read luminescence as a measure of living cells.

By EC50 is commonly meant the concentration that produces a half-maximal response. On to `O=C(NCc1ccc(C(F)(F)F)cc1)c1cccc(CN2CCCCC2)c1`, for which the EC50 came out at 0.03 µM.
